Experimental data published in PMC10813319 (Biomedicines, 2024).
Where two headings read alike, the source gives them in different places. One block for each compound: values may come before it. Square brackets hold non-standard residues; d marks the D form. Peptide text beside a SMILES is read from it.

Experiments:
[1] = tested on: Aβd/t-induced cofilactin rods in Day 55 human iPSC-derived glutamatergic neurons; test: cells; details: Neuron, read-out: EC50 for inhibition of Aβd/t-induced rods, human neurons
[2] = tested on: pre-formed Aβd/t-induced cofilactin rods in Day 55 human neurons; details: AMD3100 30 nM for 24 h in the continued presence of Aβd/t; cited from earlier work
[3] = tested on: pre-formed Aβd/t-induced cofilin-mRFP rods in E18 rat neurons
[4] = tested on: Aβd/t-induced cofilactin rods in Day 55 human iPSC-derived glutamatergic neurons
[5] = tested on: dual tropic gp120MN-induced cofilactin rods in Day 55 human neurons
[6] = tested on: IL-6-induced cofilactin rods in Day 55 human neurons
[7] = tested on: pre-formed Aβd/t-induced cofilactin rods in Day 55 human neurons
[8] = tested on: Aβd/t-induced cofilactin rods in 6 DIV rat hippocampal neurons
[9] = tested on: glutamate-induced cofilactin rods in 6 DIV rat hippocampal neurons
[10] = read-out: Human Neuron EC50, inhibition of Aβd/t-induced rods, Day 55 human neurons treated 24 h with Aβd/t plus peptide, Table 1

- EC50 [1]: 2 to 3 nM
Compound: c1cc(CN2CCCNCCNCCCNCC2)ccc1CN1CCCNCCNCCCNCC1 [AMD3100]
- Reversal of Aβd/t-induced rods in human neurons [2]: reversed
- Reversal of rods induced by and in the continued presence of Aβd/t ([3]; AMD3100 50 nM, RAP-103 0.1 nM, live imaging over 2.5 h, n = 3): reversed rods

Compound: C[C@H](O)[C@@H](NC(=O)[C@@H](CO)NC(=O)[C@H](N)CO)C(=O)N[C@H](Cc1ccc(O)cc1)C(=O)N[C@H](CCCNC(=N)N)C(=O)O [Peptide 2] (H-[dS][dS][dT][dY][dR]-OH; N-terminus and C-terminus assumed)
- EC50 [4, 10]: ~1 nM

Compound: C[C@H](O)[C@@H](NC(=O)[C@@H](Cc1ccc(O)cc1)NC(=O)[C@@H](CC(N)=O)NC(=O)[C@H](NC(=O)[C@H](N)CO)[C@H](C)O)C(=O)O [Peptide 3] (H-[dS][dT][dN][dY][dT]-OH)
- EC50 [4, 10]: ~1.5 nM

Compound: CN[C@@H](C(=O)N[C@@H](C(=O)N[C@H](CC(N)=O)C(=O)N[C@H](Cc1ccc(O)cc1)C(=O)N[C@@H](C(=O)O)[C@H](C)O)[C@H](C)O)[C@H](C)O [Peptide 6]
- EC50 [4, 10]: > 1 nM

Compound: C[C@H](O)[C@@H](N)C(=O)N[C@@H](C(=O)N[C@H](CC(N)=O)C(=O)N[C@H](Cc1ccc(O)cc1)C(=O)N[C@@H](C(=O)O)[C@H](C)O)[C@H](C)O [RAP-103]
- Inhibition of gp120MN-induced rod formation [5]: completely inhibited
- EC50 [6]: ~0.1 pM
- Adjusted time of 50% loss of rod area [3]: about 200 min
- Extrapolated time to 50% decrease in rod size [3]: ~ 3 h
- Rate of rod reversal relative to AMD3100 [3]: 2 fold
- Reversal of rods induced by and in the continued presence of Aβd/t [3]: reversed rods
- Time to 50% rod reversal in human neurons [7]: ~ 3 h

Compound: C[C@H](O)[C@@H](NC(=O)[C@@H](Cc1ccc(O)cc1)NC(=O)[C@@H](CC(N)=O)NC(=O)[C@H](NC(=O)[C@H](NC(=O)[C@H](NC(=O)[C@@H](CO)NC(=O)[C@@H](C)N)[C@H](C)O)[C@H](C)O)[C@H](C)O)C(N)=O [RAP-310]
- Inhibition of Aβd/t-induced rods, rat neurons [8]: fully inhibited
- Inhibition of glutamate-induced rods [9]: did not inhibit

Compound: Maraviroc [reference compound]
- EC50 ([4]; read-out: EC50 for inhibition of Aβd/t-induced rods, human neurons, Day 55 human iPSC-derived neurons, <1 nM to 100 nM, approximate, estimated from semi-log plots (Figure S2C,D), n = 2): 8 to 9 nM
